Laboratory results: US12011444B2, “N-substituted indole derivatives as PGE2 receptor modulators” (Idorsia Pharmaceuticals Ltd, priority 2015, dated 2024)

Key:
PTRGER4 (EP4) = PTRGER4 (EP4) (Homo sapiens (Human), UniProt P35408); assay: hEP4 b-arrestin assay (PathHunter HEK 293 PTGER4 b-arrestin cells); assay type: cell-based; conditions: antagonistic activity on hEP4; mean where measured multiple times
In short: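 Antagonist mode: compound is given 15 min at 37 °C, then 20 nM (final) PGE2 for 120 min, in HEK293 cells stably expressing EP4 fused to ProLink and β-arrestin 2 fused to EA. Recruitment read as β-gal luminescence after 1 h reagent at room temperature, as percent of DMSO control.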

PTGER2 (EP2) = PTGER2 (EP2) (Homo sapiens (Human), UniProt P43116); assay: hEP2 b-arrestin assay (PathHunter HEK 293 PTGER2 b-arrestin cells); assay type: cell-based; conditions: antagonistic activity on hEP2; mean where measured multiple times
In short: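 Readout is β-galactosidase complementation luminescence, expressed as percent of DMSO control (duplicates). PathHunter HEK293 EP2/β-arrestin 2 cells, grown 24 h, received compound for 15 min at 37 °C before a 120 min challenge with PGE2 at 5 μM final, followed by 1 h detection at room temperature.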

PTRGER4 (EP4), sequence (P35408 whole entry, looked up, the tested form may be a part): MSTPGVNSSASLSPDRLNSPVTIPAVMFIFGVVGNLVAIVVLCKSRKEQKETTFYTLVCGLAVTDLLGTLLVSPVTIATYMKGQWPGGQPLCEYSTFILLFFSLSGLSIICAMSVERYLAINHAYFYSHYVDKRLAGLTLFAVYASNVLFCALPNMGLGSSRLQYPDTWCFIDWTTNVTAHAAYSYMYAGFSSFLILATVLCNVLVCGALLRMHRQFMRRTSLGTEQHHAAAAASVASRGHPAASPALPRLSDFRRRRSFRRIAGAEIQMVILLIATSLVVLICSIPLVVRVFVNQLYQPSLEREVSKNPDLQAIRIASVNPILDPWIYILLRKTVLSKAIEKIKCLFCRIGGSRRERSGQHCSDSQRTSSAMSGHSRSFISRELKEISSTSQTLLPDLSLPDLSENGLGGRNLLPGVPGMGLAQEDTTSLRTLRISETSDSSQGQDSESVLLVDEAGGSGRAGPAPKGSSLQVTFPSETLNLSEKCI
PTGER2 (EP2), sequence (P43116 whole entry): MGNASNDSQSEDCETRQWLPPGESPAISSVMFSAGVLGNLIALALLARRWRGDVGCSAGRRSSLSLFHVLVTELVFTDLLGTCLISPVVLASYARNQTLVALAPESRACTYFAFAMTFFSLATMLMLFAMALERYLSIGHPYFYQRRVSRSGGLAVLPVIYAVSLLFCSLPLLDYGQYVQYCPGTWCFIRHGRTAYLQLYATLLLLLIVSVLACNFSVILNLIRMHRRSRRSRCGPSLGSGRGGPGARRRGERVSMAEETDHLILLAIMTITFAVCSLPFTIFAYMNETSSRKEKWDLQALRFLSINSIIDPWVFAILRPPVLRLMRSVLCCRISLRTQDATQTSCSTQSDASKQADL

SMILES	IC50 (PTRGER4 (EP4)) [nM]	IC50 (PTGER2 (EP2)) [nM]
COc1ccc(F)c2c1cc(C)n2CCNc1cc(-c2ccc(-n3ccc(C)n3)cc2)ncn1 [compound 310, [2-(7-Fluoro-4-methoxy-2-methyl-indol-1-yl)-ethyl]-{6-[4-(3-methyl-pyrazol-1-yl)-phenyl]-pyrimidin-4-yl}-amine]	415	39
COc1cccc2c1cc(C)n2CCNc1cc(-c2ccc(-c3nc(N)sc3C)cc2)ncn1 [compound 311, {6-[4-(2-Amino-5-methyl-thiazol-4-yl)-phenyl]-pyrimidin-4-yl}-[2-(4-methoxy-2-methyl-indol-1-yl)-ethyl]-amine]	232	4
COc1cc(F)cc2c1cc(C)n2CCNc1cc(-c2ccc(-c3noc(=O)[nH]3)cc2)ncn1 [compound 312, 3-(4-{6-[2-(6-Fluoro-4-methoxy-2-methyl-indol-1-yl)-ethylamino]-pyrimidin-4-yl}-phenyl)-4H-[1,2,4]oxadiazol-5-one]	85	44
COc1ccc(F)c2c1cc(C)n2CCNc1cc(-c2ccc(-c3noc(=O)[nH]3)cc2)ncn1 [compound 313, 3-(4-{6-[2-(7-Fluoro-4-methoxy-2-methyl-indol-1-yl)-ethylamino]-pyrimidin-4-yl}-phenyl)-4H-[1,2,4]oxadiazol-5-one]	110	7
CCCN1Cc2cc(-c3cc(NCCn4c(C)cc5c(OC)cccc54)ncn3)ccc2C1=O [compound 315, 5-{6-[2-(4-Methoxy-2-methyl-indol-1-yl)-ethylamino]-pyrimidin-4-yl}-2-propyl-2,3-dihydro-isoindol-1-one]	268	46
Cc1ccc(F)c2c1cc(C)n2CCNc1cc(-c2ccc(N3CCCS3(=O)=O)cc2)ncn1 [compound 316]	906	245
COc1cc(F)cc2c1cc(C)n2CCNc1cc(-c2ccc(N3CCCC3=O)cc2)ncn1 [compound 317]	873	320
COc1ccc(F)c2c1cc(C)n2CCNc1cc(-c2ccc(N3CCCC3=O)cc2)ncn1 [compound 318]	894	338
CCN1Cc2cc(-c3cc(NCCn4c(C)cc5c(OC)ccc(F)c54)ncn3)ccc2C1=O [compound 320]	345	68
COc1ccc(F)c2c1cc(C)n2CCNc1cc(-c2ccc(-c3csc(C)n3)cc2)ncn1 [compound 321]	439	72
COc1ccc(F)c2c1cc(C)n2CCNc1cc(-c2ccc(C(=O)O)c3[nH]ccc23)ncn1 [compound 323, 4-{6-[2-(7-Fluoro-4-methoxy-2-methyl-indol-1-yl)-ethylamino]-pyrimidin-4-yl}-1H-indole-7-carboxylic acid]	708	18
CNc1nnc(-c2ccc(-c3cc(NCCn4c(C)cc5c(C)ccc(F)c54)ncn3)cc2)s1 [compound 324, [2-(7-Fluoro-2,4-dimethyl-indol-1-yl)-ethyl]-{6-[4-(5-methylamino-[1,3,4]thiadiazol-2-yl)-phenyl]-pyrimidin-4-yl}-amine]	23	4
COc1ccc(F)c2c1cc(C)n2CCNc1cc(-c2ccc3c(c2)CCO3)ncn1 [compound 325]	968	159
CCc1cccc2c1cc(C)n2CCNc1cc(-c2ccc(C(=O)O)c(CC(C)C)c2)ncn1 [compound 327]	629	482
Cc1ccc(C)c2c1cc(C)n2CCNc1cc(-c2ccc(C(=O)O)c(CC(C)C)c2)ncn1 [compound 328, 2-Isobutyl-4-{6-[2-(2,4,7-trimethyl-indol-1-yl)-ethylamino]-pyrimidin-4-yl}-benzoic acid]	570	62
Cc1cccc2c1cc(C)n2CCNc1cc(-c2ccc(C(=O)O)c(CCC(C)C)c2)ncn1 [compound 329, 4-{6-[2-(2,4-Dimethyl-indol-1-yl)-ethylamino]-pyrimidin-4-yl}-2-(3-methyl-butyl)-benzoic acid]	653	27
CSc1cc(-c2cc(NCCn3c(C)cc4c(C)c(F)cc(Cl)c43)ncn2)cc(F)c1C(=O)O [compound 330]	667	102
CSc1cc(-c2cc(NCCn3c(C)cc4c(C)c(F)cc(Cl)c43)ncn2)cc(Cl)c1C(=O)O [compound 331]	829	98
Cc1cc2c(F)ccc(F)c2n1CCNc1cc(-c2ccc(C(=O)O)c(CC(C)C)c2)ncn1 [compound 332, 4-{6-[2-(4,7-Difluoro-2-methyl-indol-1-yl)-ethylamino]-pyrimidin-4-yl}-2-isobutyl-benzoic acid]	588	5

SMILES	IC50 (PTRGER4 (EP4)) [nM]	IC50 (PTGER2 (EP2)) [nM]
Cc1cc2cc(F)cc(F)c2n1CCNc1cc(-c2ccc(C(=O)O)c(CC(C)C)c2)ncn1 [compound 333, 4-{6-[2-(5,7-Difluoro-2-methyl-indol-1-yl)-ethylamino]-pyrimidin-4-yl}-2-isobutyl-benzoic acid]	483	15
CCCSc1cc(-c2cc(NCCn3c(C)cc4c(C)ccc(Cl)c43)ncn2)ccc1C(=O)O [compound 334, 4-{6-[2-(7-Chloro-2,4-dimethyl-indol-1-yl)-ethylamino]-pyrimidin-4-yl}-2-propylsulfanyl-benzoic acid]	603	28
CCCc1cc(-c2cc(NCCn3c(C)cc4cc(C)cc(Cl)c43)ncn2)cc(Cl)c1C(=O)O [compound 335]	468	56
Cc1ccc(F)c2c1cc(C)n2CCNc1cc(-c2ccc(C(=O)O)c(CC(C)C)c2)ncn1 [compound 336, 4-{6-[2-(7-Fluoro-2,4-dimethyl-indol-1-yl)-ethylamino]-pyrimidin-4-yl}-2-isobutyl-benzoic acid]	199	46
CCCc1cc(-c2cc(NCCn3c(C)cc4c(CC)ccc(F)c43)ncn2)ccc1C(=O)O [compound 338]	357	858
CSc1cc(-c2cc(NCCn3c(C)cc4c(F)c(F)cc(Cl)c43)ncn2)cc(Cl)c1C(=O)O [compound 339, 2-Chloro-4-{6-[2-(7-chloro-4,5-difluoro-2-methyl-indol-1-yl)-ethylamino]-pyrimidin-4-yl}-6-methylsulfanyl-benzoic acid]	989	5
CCCc1cc(-c2cc(NCCn3c(C)cc4c(F)ccc(Cl)c43)ncn2)cc(F)c1C(=O)O [compound 340, 4-{6-[2-(7-Chloro-4-fluoro-2-methyl-indol-1-yl)-ethylamino]-pyrimidin-4-yl}-2-fluoro-6-propyl-benzoic acid]	645	5
CCSc1cc(-c2cc(NCCn3c(C)cc4c(C)c(F)cc(Cl)c43)ncn2)ccc1C(=O)O [compound 341, 4-{6-[2-(7-Chloro-5-fluoro-2,4-dimethyl-indol-1-yl)-ethylamino]-pyrimidin-4-yl}-2-ethylsulfanyl-benzoic acid]	396	42
CCCc1cc(-c2cc(NCCn3c(C)cc4c(F)ccc(Cl)c43)ncn2)cc(Cl)c1C(=O)O [compound 342, 2-Chloro-4-{6-[2-(7-chloro-4-fluoro-2-methyl-indol-1-yl)-ethylamino]-pyrimidin-4-yl}-6-propyl-benzoic acid]	621	5
CCOc1cc(-c2cc(NCCn3c(C)cc4c(C)c(F)cc(Cl)c43)ncn2)ccc1C(=O)O [compound 344, 4-{6-[2-(7-Chloro-5-fluoro-2,4-dimethyl-indol-1-yl)-ethylamino]-pyrimidin-4-yl}-2-ethoxy-benzoic acid]	319	34
CCc1cc(-c2cc(NCCn3c(C)cc4c(OC)ccc(Cl)c43)ncn2)cc(Cl)c1C(=O)O [compound 345]	164	89
CCc1cc(-c2cc(NCCn3c(C)cc4c(OC)ccc(F)c43)ncn2)cc(Cl)c1C(=O)O [compound 346]	50	56
CCOc1cc(-c2cc(NCCn3c(C)cc4c(C)ccc(F)c43)ncn2)cc(C)c1C(=O)O [compound 347, 2-Ethoxy-4-{6-[2-(7-fluoro-2,4-dimethyl-indol-1-yl)-ethylamino]-pyrimidin-4-yl}-6-methyl-benzoic acid]	239	11
CCCc1cc(-c2cc(NCCn3c(C)cc4c(OC)ccc(F)c43)ncn2)ccc1C(=O)O [compound 348, 4-{6-[2-(7-Fluoro-4-methoxy-2-methyl-indol-1-yl)-ethylamino]-pyrimidin-4-yl}-2-propyl-benzoic acid]	76	5
Cc1cc(Cl)cc2c1cc(C)n2CCNc1cc(-c2ccc(C(=O)O)c(OC(F)F)c2)ncn1 [compound 349, 4-{6-[2-(6-Chloro-2,4-dimethyl-indol-1-yl)-ethylamino]-pyrimidin-4-yl}-2-difluoromethoxy-benzoic acid]	301	26
CCOc1cc(-c2cc(NCCn3c(C)cc4c(F)c(F)cc(Cl)c43)ncn2)ccc1C(=O)O [compound 350, 4-{6-[2-(7-Chloro-4,5-difluoro-2-methyl-indol-1-yl)-ethylamino]-pyrimidin-4-yl}-2-ethoxy-benzoic acid]	993	6
CCOc1cc(-c2cc(NCCn3c(C)cc4c(Cl)c(F)cc(Cl)c43)ncn2)ccc1C(=O)O [compound 351]	688	52
COc1cccc2c1cc(C)n2CCNc1cc(-c2ccc3[nH]c(C)nc3c2)ncn1 [compound 352]	481	49
CCNc1cc(-c2cc(NCCn3c(C)cc4c(C)ccc(F)c43)ncn2)cc(Cl)c1C(=O)O [compound 353, 2-Chloro-6-ethylamino-4-{6-[2-(7-fluoro-2,4-dimethyl-indol-1-yl)-ethylamino]-pyrimidin-4-yl}-benzoic acid]	213	13
